This is an account of results in paper PMC8707145, “Synthesis, Molecular Docking and Antiplasmodial Activities of New Tetrahydro-β-Carbolines” (International Journal of Molecular Sciences, 2021).

The test system of data set [1] is P. falciparum W2 (CQ-resistant) strain. In words: P. falciparum drug susceptibility assay (pLDH), W2 strain. It counts as cell-based, Plasmodium falciparum. Particulars: for IC50: Plasmodium falciparum, W2 (CQ-resistant) strain, 72 h, pLDH, read-out: P. falciparum IC50 W2; for RI (resistance index): RI = IC50 CQ resistant P. falciparum strain/IC50 CQ sensitive P. falciparum strain. The method, then: Plasmodium falciparum cultures were established according to the method of Trager and Jensen, with slight modifications. The CQ-susceptible strain, D10, and the CQ-resistant strain, W2, were maintained in human type A-positive red blood cells at 5% hematocrit in RPMI 1640 medium with the addition of 1% AlbuMax, 0.01% hypoxanthine, 20 mM Hepes, and 2 mM glutamine. Cultures were maintained at 37 °C in a gas mixture consisting of 1% O2, 5% CO2, and 94% N2. Compounds were dissolved in DMSO and diluted with medium to achieve the required concentrations (final DMSO concentration <1%, which is non-toxic to the parasite). Drugs were introduced into 96-well flat-bottomed microplates and serial dilutions made. Asynchronous cultures with parasitaemia of 1–1.5% and 1% final hematocrit were aliquoted into the plates and incubated for 72 h at 37 °C. Parasite growth was determined spectrophotometrically (OD650) by measuring the activity of parasite lactate dehydrogenase (pLDH), according to a modified version of the method of Makler, in both control and drug-treated cultures.

Data set [2] can be described thus: Cytotoxicity assay on HMEC-1 cell line (MTT). The data set is classed as cell-based, human. To be noted: human, HMEC-1 cells; HMEC-1, MTT, 72 h. As to the method: (§1) The long-term human microvascular endothelial cell line (HMEC-1) was maintained in MCDB 131 medium supplemented with 10% fetal calf serum, 10 ng/mL of epidermal growth factor, 1 µg/mL of hydrocortisone, 2 mM glutamine and 20 mM Hepes buffer. For the cytotoxicity assays, cells were treated with serial dilutions of test compounds and cell proliferation evaluated using the MTT assay. Plates were incubated for 72 h at 37 °C in 5% CO2, then 20 µL of a 5 mg/mL solution of 3-(4,5-dimethylthiazol-2-yl)-2,5-diphenyltetrazolium bromide (MTT) in PBS was added for an additional 3 h at 37 °C. The plates were then centrifuged, the supernatants discarded, and the dark blue formazan crystals dissolved using 100 µL of lysing buffer consisting of 20% (w/v) of a solution of SDS, 40% of N,N dimethylformamide in H2O, at pH 4.7 adjusted with 80% acetic acid. The plates were then read on a microplate reader (Synergy 4 Bio-Tek Instruments, Thermo Fisher Scientific, Waltham, MA, USA) at a test wavelength of 550 nm and a reference wavelength of 650 nm. All the tests were performed in triplicate at least three times.

Data set [3] relates to human microvascular endothelial (HMEC-1) cell line. In words: Cytotoxicity assay on HMEC-1 cell line (MTT). It counts as cell-based. Particulars: for SI D10: SI = IC50 HMEC-1/IC50 P. falciparum D10 strain; for SI W2: SI = IC50 HMEC-1/IC50 P. falciparum W2 strain. As to the method:
as §1

For data set [4], the system named is P. falciparum D10 (CQ-sensitive) strain. In words: P. falciparum drug susceptibility assay (pLDH), D10 strain. The data set is classed as cell-based. To be noted: Plasmodium falciparum; D10 (CQ-sensitive) strain, 72 h, pLDH; read-out: P. falciparum IC50 D10. As to the method: Plasmodium falciparum cultures were established according to the method of Trager and Jensen, with slight modifications. […] Drugs were introduced into 96-well flat-bottomed microplates and serial dilutions made. […] Parasite growth was determined spectrophotometrically (OD650) by measuring the activity of parasite lactate dehydrogenase (pLDH), according to a modified version of the method of Makler, in both control and drug-treated cultures.

Data set [5] can be described thus: Determination of hemolytic activity. Particulars: human erythrocytes, released hemoglobin, read-out: level of hemolysis. It counts as cell-based. The method, then:
We also sought to investigate the hemolytic potential of the synthetized compounds. […] We incubated these compounds at a concentration of 10 µM, with human erythrocytes, and then, by measuring the released hemoglobin, we assessed their potential harmful effects on these cells. The measured level of hemolysis was less than 5% for all agents, which proves that the compounds are not hemolytic. It is worth emphasizing at this point that this type of test is extremely important to confirm that the observed inhibitory activity against Plasmodium is a result of a compound acting directly upon it and not as a result of red blood cell lysis.
The study protocol was approved by the Bioethics Commission at the Lower Silesian Medical Chamber (1/PNHAB/2018, approval date 14 February 2018), and experiments were performed as previously described. Compounds dissolved in DMSO were added in a volume corresponding to a final concentration of 10 µM in the sample. Negative (erythrocytes in PBS buffer), positive (erythrocytes in distilled water), and DMSO controls were also prepared.

In another data set the test system is P. falciparum. To be noted: read-out: 50% inhibitory concentration (IC50); range of values; no diminished potency against drug-resistant strains; ref [8]; cited from earlier work.
The next data set has as its system P. falciparum Dd2 strain. The arrangement: method as in PMID 29072835. Particulars: ref [10], read-out: IC50 growth of P. falciparum Dd2 strain; cited from earlier work.

The structures appear in SMILES notation. Where only a bound is given, the exact number is not on record here.

As to `CC(C)(C)CCNC(=O)C1Cc2c([nH]c3ccccc23)C(c2ccc(Cl)cc2)N1` (centres unmarked) [Compound 8, 1-(4-chlorophenyl)-N-(3,3-dimethylbutyl)-2,3,4,9-tetrahydro-1H-pyrido[3,4-b]indole-3-carboxamide], in data set [1], the IC50 was found to be 7.8 ± 1.54 µM and the “RI (resistance index)” value is listed as 0.74. Further, the IC50 at 72 h in data set [2] came to 17.9 ± 9.46 µM. For the same compound, in data set [3], the “SI D10” value was found to be 1.71 and the “SI W2” value was found to be 2.30. The IC50 in data set [4] came out at 10.5 ± 1.53 µM.

`CC1NC(C(=O)NCC2CCCCC2)Cc2c1[nH]c1ccccc21` (centres unmarked) [Compound 5, N-(cyclohexylmethyl)-1-methyl-2,3,4,9-tetrahydro-1H-pyrido[3,4-b]indole-3-carboxamide]: in data set [1], the IC50 is 16.2 ± 4.11 µM and the “RI (resistance index)” value came out at 0.48. The IC50 in data set [4] is 33.5 ± 7.58 µM.

For the compound `CC(C)(C)CC(C)(C)NC(=O)C1Cc2c([nH]c3ccccc23)C(c2ccc(Cl)cc2)N1` (centres unmarked) [Compound 9, 1-(4-chlorophenyl)-N-(2,4,4-trimethylpentan-2-yl)-2,3,4,9-tetrahydro-1H-pyrido[3,4-b]indole-3-carboxamide], in data set [1], the IC50 was found to be 6.41 ± 1.05 µM and the “RI (resistance index)” value came to 0.76. Also, the IC50 at 72 h in data set [2] turned out to be 18.9 ± 10.2 µM. Further, in data set [3], the “SI D10” value was 2.25 and the “SI W2” value was 2.95. Moreover, in data set [4], the IC50 came out at 8.41 ± 1.2 µM.

`CC1NC(C(=O)N2CCCCC2)Cc2c1[nH]c1ccccc21` (centres unmarked) [Compound 3, (1-methyl-2,3,4,9-tetrahydro-1H-pyrido[3,4-b]indol-3-yl)(piperidin-1-yl)methanone]: in data set [1], the IC50 was 9.6 ± 0.78 µM and the “RI (resistance index)” value came out at 0.73. Besides, the IC50 at 72 h in data set [2] stood at 157 ± 42.5 µM. Besides, in data set [3], the “SI D10” value was found to be 11.93 and the “SI W2” value was found to be 16.37. The IC50 in data set [4] was 13.2 ± 2.85 µM. In addition, the hemolysis at 10 µM in data set [5] is < 5%.

Take `O=C(NCCCN1CCOCC1)C1Cc2c([nH]c3ccccc23)C(c2ccc(Cl)cc2)N1` (centres unmarked) [Compound 12, 1-(4-chlorophenyl)-N-(3-morpholinopropyl)-2,3,4,9-tetrahydro-1H-pyrido[3,4-b]indole-3-carboxamide]: in data set [1], the IC50 is 6.15 ± 0.46 µM and the “RI (resistance index)” value was determined as 0.54. In addition, in data set [2], the IC50 at 72 h amounted to 102 ± 14.8 µM. Also, in data set [3], the “SI D10” value was 8.91 and the “SI W2” value turned out to be 16.60. The IC50 in data set [4] came out at 11.5 ± 0.34 µM. Further, the hemolysis at 10 µM in data set [5] is < 5%.

For the compound `O=C(NCC1CCCO1)C1Cc2c([nH]c3ccccc23)C(c2ccc(Cl)cc2)N1` (centres unmarked) [Compound 10, 1-(4-chlorophenyl)-N-((tetrahydrofuran-2-yl)methyl)-2,3,4,9-tetrahydro-1H-pyrido[3,4-b]indole-3-carboxamide], in data set [1], the IC50 worked out at 20.5 ± 2.2 µM and the “RI (resistance index)” value is listed as 0.70. Moreover, the IC50 in data set [4] turned out to be 29.4 ± 7.88 µM.

With `O=C(NCC1COCCO1)C1Cc2c([nH]c3ccccc23)C(c2ccc(Cl)cc2)N1` (centres unmarked) [Compound 11, N-((1,4-dioxan-2-yl)methyl)-1-(4-chlorophenyl)-2,3,4,9-tetrahydro-1H-pyrido[3,4-b]indole-3-carboxamide], in data set [1], the IC50 worked out at 29.1 ± 4.05 µM and the “RI (resistance index)” value worked out at 0.82. In addition, the IC50 in data set [4] stood at 35.4 ± 4.86 µM.

In the case of `O=C(NC1CCCCC1)[C@@H]1Cc2c([nH]c3ccccc23)[C@@H](c2ccc(Cl)cc2)N1` (racemic) [1RS,3SR-13, (1RS,3SR)-1-(4-chlorophenyl)-N-cyclohexyl-2,3,4,9-tetrahydro-1H-pyrido[3,4-b]indole-3-carboxamide], in data set [1], the IC50 worked out at 9.13 ± 0.83 µM and the “RI (resistance index)” value is given as 0.73. Further, the IC50 at 72 h in data set [2] was > 123 µM. In addition, the IC50 in data set [4] is 12.5 ± 0.71 µM.

In the case of `C[C@H]1Cc2c([nH]c3cc(Cl)c(F)cc23)[C@@]2(N1)C(=O)Nc1ccc(Cl)cc12` [Cipargamin], the IC50 in the data set with P. falciparum was 0.0005 to 0.0014 µM.

On to `CCCCCCCCC1NC(C(=O)NCCC(C)(C)C)Cc2c1[nH]c1ccccc21` (centres unmarked) [Compound 7, N-(3,3-dimethylbutyl)-1-octyl-2,3,4,9-tetrahydro-1H-pyrido[3,4-b]-indole-3-carboxamide], for which, in data set [1], the IC50 is 4 ± 0.53 µM and the “RI (resistance index)” value was found to be 0.90. The IC50 at 72 h in data set [2] stood at 72 ± 22.4 µM. For the same compound, in data set [3], the “SI D10” value was found to be 16.18 and the “SI W2” value stood at 18.00. Also, the IC50 in data set [4] worked out at 4.45 ± 0.83 µM. Moreover, the hemolysis at 10 µM in data set [5] is < 5%.

Consider `O=C(NC1CCCCCCC1)C1Cc2c([nH]c3ccccc23)CN1` (centres unmarked) [Compound 2, N-cyclooctyl-2,3,4,9-tetrahydro-1H-pyrido[3,4-b]indole-3-carboxamide], for which the IC50 came out at 10.1 ± 2.14 µM in data set [1] and 21.9 ± 5.82 µM in data set [4]. For the same compound, the “RI (resistance index)” value in data set [1] was 0.46.

With `CCC1NC(C(=O)NC23CC4CC(CC(C4)C2)C3)Cc2c1[nH]c1ccccc21` (centres unmarked) [Compound 6, N-(Adamantan-1-yl)-1-ethyl-2,3,4,9-tetrahydro-1H-pyrido[3,4-b]indole-3-carboxamide], in data set [1], the IC50 was 11.4 ± 0.82 µM and the “RI (resistance index)” value came out at 1.17. In addition, in data set [2], the IC50 at 72 h is 21.1 ± 8.82 µM. Also, in data set [3], the “SI D10” value came to 2.17 and the “SI W2” value turned out to be 1.86. The IC50 in data set [4] was 9.73 ± 0.96 µM.

On to `O=C(NC1CCCCC1)[C@@H]1Cc2c([nH]c3ccccc23)[C@H](c2ccc(Cl)cc2)N1` (racemic) [1RS,3RS-13, (1SR,3SR)-1-(4-chlorophenyl)-N-cyclohexyl-2,3,4,9-tetrahydro-1H-pyrido[3,4-b]indole-3-carboxamide], for which, in data set [1], the IC50 is 13.5 ± 1.99 µM and the “RI (resistance index)” value turned out to be 0.84. Also, in data set [2], the IC50 at 72 h came to 53.8 ± 21.9 µM. In data set [3], the “SI D10” value is given as 3.35 and the “SI W2” value is given as 4.00. For the same compound, the IC50 in data set [4] turned out to be 16.1 ± 3.36 µM.

With `O=C(NCC1CCCCC1)C1Cc2c([nH]c3ccccc23)C(c2ccc(Cl)cc2)N1` (centres unmarked) [Compound 14, 1-(4-chlorophenyl)-N-(cyclohexylmethyl)-2,3,4,9-tetrahydro-1H-pyrido[3,4-b]indole-3-carboxamide], the IC50 in data set [1] and in data set [4] was > 47.4 µM in each case.

For the compound `O=C(O)[C@@H]1Cc2c([nH]c3ccccc23)[C@@H](c2ccc(Cl)cc2Cl)N1` [MMV008138], the IC50 in the data set with P. falciparum Dd2 strain is 0.25 µM.

Consider `CC1NC(C(=O)NC2CCCCC2)Cc2c1[nH]c1ccccc21` (centres unmarked) [Compound 4, N-cyclohexyl-1-methyl-2,3,4,9-tetrahydro-1H-pyrido[3,4-b]indole-3-carboxamide], for which, in data set [1], the IC50 came to 20.1 ± 2.79 µM and the “RI (resistance index)” value was determined as 0.94. Also, in data set [4], the IC50 came out at 21.4 ± 4.7 µM.
